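Following 48 hours of exposure in 96-well plates, responses at five concentrations were used to interpolate endpoints linearly. GI50 marks 50% less growth. The concentration for full growth arrest is given as TGI.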

Test systems include SF-268 CNS; M14 melanoma; OVCAR-5 ovarian; UACC-62 melanoma; KM12 colon; NCI-H460 lung; A549 NSCLC; K-562 leukemia; OVCAR-3 ovarian; CCRF-CEM leukemia.
What all share (assay): NCI-60 cell line screen, 48 h

Turning to `O=C(O)CSc1nc2ccccc2[nH]1`, the TGI in the assay on SF-268 CNS, in the assay with M14 melanoma, in the assay on OVCAR-5 ovarian, in the assay with UACC-62 melanoma, in the assay on KM12 colon and in the assay on NCI-H460 lung was more than 100 µM throughout. Moreover, the TGI in the assay with A549 NSCLC, in the assay on K-562 leukemia and with OVCAR-3 ovarian was more than 100 µM each time.
As to `COc1cc(CN(C)N2C(=O)c3cccc4cc([N+](=O)[O-])cc(c34)C2=O)cc(OC)c1OC`, the TGI with CCRF-CEM leukemia, with M14 melanoma, with OVCAR-5 ovarian, with UACC-62 melanoma, in the assay on KM12 colon and in the assay with NCI-H460 lung was more than 100 µM throughout. Also, the TGI with K-562 leukemia and in the assay on OVCAR-3 ovarian was more than 100 µM each time.
In the case of `ClCc1nnc2n1-c1ccc(Cl)cc1SC2`, the TGI in the assay on CCRF-CEM leukemia came out at 8.42 µM; in the assay on SF-268 CNS, 9.55 µM; in the assay on OVCAR-5 ovarian, 24.6 µM; in the assay on UACC-62 melanoma, 8.51 µM; in the assay on KM12 colon it was 15.1 µM; in the assay with NCI-H460 lung, 14 µM. Also, the TGI is 20.3 µM with A549 NSCLC, more than 100 µM in the assay on K-562 leukemia and 8.09 µM with OVCAR-3 ovarian.
As for `CCNc1nc2c(=O)n(C)c(=O)n(C)c2s1`, the TGI in the assay on CCRF-CEM leukemia, in the assay with SF-268 CNS, with M14 melanoma, in the assay with OVCAR-5 ovarian, in the assay on UACC-62 melanoma and in the assay with KM12 colon was more than 100 µM throughout. For the same molecule, the TGI with NCI-H460 lung, in the assay on A549 NSCLC, in the assay on K-562 leukemia and in the assay on OVCAR-3 ovarian was more than 100 µM in each case.
Regarding `CCOC(=O)c1csc(NC(=O)CCN2CCOCC2)n1`, the TGI in the assay on CCRF-CEM leukemia, in the assay on M14 melanoma, in the assay with OVCAR-5 ovarian, in the assay on UACC-62 melanoma, with NCI-H460 lung and in the assay with A549 NSCLC was more than 100 µM in each case. Besides, the TGI with K-562 leukemia and with OVCAR-3 ovarian was more than 100 µM in each case.
Regarding `Cc1cc(C)c(S(=O)(=O)N(CCCCCCN)OCCCON(CCCCCCN)S(=O)(=O)c2c(C)cc(C)cc2C)c(C)c1`, the TGI in the assay with CCRF-CEM leukemia is more than 100 µM; in the assay on SF-268 CNS, 3.42 µM; in the assay on M14 melanoma, 3.03 µM; with OVCAR-5 ovarian, 2.72 µM; in the assay on UACC-62 melanoma it was 3.15 µM; with KM12 colon, 4.35 µM. The TGI was 3.07 µM in the assay on NCI-H460 lung, 3.24 µM in the assay with A549 NSCLC, more than 100 µM with K-562 leukemia and 3.34 µM in the assay on OVCAR-3 ovarian.
As for `O=c1n(Cc2ccccc2)c2ccccc2n1CC1CS1` (centres undefined), the TGI in the assay on CCRF-CEM leukemia, with SF-268 CNS, with M14 melanoma, in the assay on OVCAR-5 ovarian, in the assay with UACC-62 melanoma and with KM12 colon was more than 100 µM in each case. The TGI in the assay with A549 NSCLC, in the assay with K-562 leukemia and in the assay on OVCAR-3 ovarian was more than 100 µM throughout.
Turning to `C=C1CC2(C)CCC(OC(=O)C3(C)OC3C)C(C)(OC(C)=O)C2CC1=C(C)C` (centres undefined), the TGI in the assay on CCRF-CEM leukemia, in the assay with SF-268 CNS, in the assay with M14 melanoma, with OVCAR-5 ovarian, with UACC-62 melanoma and in the assay with KM12 colon was more than 100 µM each time. Moreover, the TGI in the assay with NCI-H460 lung, in the assay on A549 NSCLC, in the assay with K-562 leukemia and with OVCAR-3 ovarian was more than 100 µM throughout.
Take `CC1(C)CCCC2(C)[C@@H]1CC[C@]13C[C@](C)(CC[C@@H]21)[C@@H]3CO` (some centres undefined): the TGI in the assay with CCRF-CEM leukemia, with SF-268 CNS, in the assay with M14 melanoma, in the assay on OVCAR-5 ovarian, in the assay on UACC-62 melanoma and in the assay with KM12 colon was more than 100 µM throughout. The TGI in the assay with NCI-H460 lung, in the assay with A549 NSCLC, in the assay with K-562 leukemia and in the assay with OVCAR-3 ovarian was more than 100 µM throughout.
For `Fc1cc(C2=Nn3c(nnc3-c3cc(F)c(Cl)cc3Cl)SC2)c(Cl)cc1Cl`, the GI50 was 22 µM with CCRF-CEM leukemia; 18.5 µM in the assay with SF-268 CNS; 56.8 µM with OVCAR-5 ovarian; 13.3 µM in the assay on UACC-62 melanoma; 28.5 µM with KM12 colon; 17.6 µM in the assay on NCI-H460 lung. For the same molecule, the GI50 in the assay with A549 NSCLC is 23.7 µM; with K-562 leukemia it was 17.8 µM; with OVCAR-3 ovarian it was 11.5 µM. Also, the TGI is more than 100 µM in the assay on CCRF-CEM leukemia; 61.3 µM with SF-268 CNS; more than 100 µM with OVCAR-5 ovarian; 38.6 µM with UACC-62 melanoma; 86.8 µM in the assay on KM12 colon; more than 100 µM in the assay with NCI-H460 lung. Besides, the figures for the TGI in the assay on A549 NSCLC, in the assay with K-562 leukemia and in the assay with OVCAR-3 ovarian were 83.5 µM, more than 100 µM and 46.9 µM, respectively.
With `COc1ccc2c(c1)C(=O)/C(=C/c1ccccc1)C2`, the TGI in the assay with CCRF-CEM leukemia, in the assay with M14 melanoma, with OVCAR-5 ovarian, with UACC-62 melanoma, in the assay on KM12 colon and with NCI-H460 lung was more than 100 µM in each case. In addition, the TGI in the assay on K-562 leukemia and with OVCAR-3 ovarian was more than 100 µM each time.

Source of the values: PubChem BioAssay (NCI).
